Reference: patent US20230143751A1, “Aromatic Compound And Use Thereof In Preparing Antineoplastic Drugs” (Shanghai Zheye Biotechnology Co. Ltd., priority 2020, published 2023)
Where two headings read alike, the source gives them in different places.

Columns and labels:
[1] = system: MIA PaCa-2-derived xenograft tumor; experiment: Pharmacodynamics test of MIA PaCa-2-derived xenograft tumor model in nude mice (test 6); assay type: in vivo; settings: for Tumor inhibition rate (%): MIA PaCa-2 xenograft, nude mice, 10 mg/kg oral gavage QD×15 days
Method: Animal species and number: Balb/c Nude; 6 animals per group.
Test samples: Compound 3-2, Compound 3-6, Compound 3-20, Compound 3-12M.
Test groups: blank solvent control group; Compound 3-2 (10 mg/kg, QD×15 days), Compound 3-6 (10 mg/kg, QD×15 days), Compound 3-20 (10 mg/kg, QD×15 days), Compound 3-12M (10 mg/kg, QD×15 days).
(§1) Animal model establishment: MIA paca-2 tumor cells in logarithmic growth phase were cultured in vitro and collected, and inoculated subcutaneously into the right back of nude mice at a quantity of 5×10^6 cells/each. When the tumor volume reached 150-300 mm^3, the tumor-bearing nude mice were randomly grouped. Subsequently, the animals in each group were administered, and the day of the first administration was defined as day 1 of the test.
(§2) Administration route and frequency: oral administration by gavage; once a day.
(§3) General state observation: observation time and frequency: once a day; observation indexes or contents: including but not limited to administration location, appearance and signs, general behavioral activities, mental status, death and other abnormal performance of the animals. The animals were euthanized at the end of the test.
Tumor volume calculation: V=½×long diameter×short diameter^2 (mm^3). Tumor growth inhibition rate TGI (%) is used to evaluate the tumor inhibition efficacy of the compounds. TGI (%)=[1−(mean tumor volume in treatment group at the end of administration−mean tumor volume in treatment group at the beginning of administration)/(mean tumor volume in control group at the end of administration−mean tumor volume in control group at the beginning of administration)]×100%.

[2] = Preliminary safety test, 5-day escalating oral dosing in Balb/c mice; assay type: in vivo; settings: for MTD at 5 days: both sexes, mouse, in vivo, oral gavage, initially suggested, read-out: maximum tolerated dose; for water and food intake, activity and body weight during the administration period (in words): oral gavage once a day for 5 days, 200 to 800 mg/kg
Method: Test samples: Compound 3-2, Compound 3-6, Compound 3-12M, Compound 3-20, and Compound 4-8.
Animal species and number: Balb/c; 6 animals per group (half male and half female).
(§4) Administration mode: oral administration by gavage.
Animal grouping and administration dose: vehicle blank group, Compound 3-2 group (200 mg/kg, 400 mg/kg, 800 mg/kg), Compound 3-6 group (200 mg/kg, 400 mg/kg, 800 mg/kg), Compound 3-12M group (200 mg/kg, 400 mg/kg, 800 mg/kg), Compound 3-20 group (200 mg/kg, 400 mg/kg, 800 mg/kg), Compound 4-8 group (200 mg/kg, 400 mg/kg, 800 mg/kg).
Administration frequency: once a day for 5 days.
(§5) General clinical observations were performed 2 times a day (once in the morning and once in the afternoon) during the test period. Death, morbidity, respiration, secretions, feces, and diet, drinking situation and so on were observed, and the changes in body weight of the mice during the administration period were recorded. The animals in each group were euthanized after the administration, and all animals were dissected and subjected to gross observation.

[3] = system: NCI-H358-derived xenograft tumor; experiment: Pharmacodynamics study of H358-derived xenograft tumor model (test 9); assay type: in vivo, nude mice; settings: 3-12M 20 and 100 mg/kg, ARS1620 100 mg/kg, i.g., QD×28 days
Method: Animal species and number: Balb/c Nude; 10 animals per group.
Test samples: Compound ARS1620 (the representative inhibitor targeting KRAS G12C tumor
target, acquired by purchase) and Compound 3-12M.
Test groups: blank solvent control group;
Compound ARS1620 (100 mg/kg, i.g., QD×28 days);
Compound 3-12M (20 mg/kg, i.g., QD×28 days);
Compound 3-12M (100 mg/kg, i.g., QD×28 days).
as §1, with “NCI-H358” for “Animal model establishment: MIA paca-2”, “150˜300” for “150-300”
as §2, §3
Tumor volume calculation: V=½×long diameter×short diameter^2 (mm^3).

[4] = target: T1, human-derived MDR1 (MDR1 coding P-gp) transporter protein (Homo sapiens, UniProt P08183); experiment: Transport effect of transporter MDR1 (vesicle uptake, P-gp substrate assessment); assay type: in vitro ADME; settings: vesicles expressing human-derived MDR1, 37° C.
T1 construct: expressed in transfected cells; host or cells: membrane vesicles expressing human MDR1
T1 sequence (P08183 whole entry): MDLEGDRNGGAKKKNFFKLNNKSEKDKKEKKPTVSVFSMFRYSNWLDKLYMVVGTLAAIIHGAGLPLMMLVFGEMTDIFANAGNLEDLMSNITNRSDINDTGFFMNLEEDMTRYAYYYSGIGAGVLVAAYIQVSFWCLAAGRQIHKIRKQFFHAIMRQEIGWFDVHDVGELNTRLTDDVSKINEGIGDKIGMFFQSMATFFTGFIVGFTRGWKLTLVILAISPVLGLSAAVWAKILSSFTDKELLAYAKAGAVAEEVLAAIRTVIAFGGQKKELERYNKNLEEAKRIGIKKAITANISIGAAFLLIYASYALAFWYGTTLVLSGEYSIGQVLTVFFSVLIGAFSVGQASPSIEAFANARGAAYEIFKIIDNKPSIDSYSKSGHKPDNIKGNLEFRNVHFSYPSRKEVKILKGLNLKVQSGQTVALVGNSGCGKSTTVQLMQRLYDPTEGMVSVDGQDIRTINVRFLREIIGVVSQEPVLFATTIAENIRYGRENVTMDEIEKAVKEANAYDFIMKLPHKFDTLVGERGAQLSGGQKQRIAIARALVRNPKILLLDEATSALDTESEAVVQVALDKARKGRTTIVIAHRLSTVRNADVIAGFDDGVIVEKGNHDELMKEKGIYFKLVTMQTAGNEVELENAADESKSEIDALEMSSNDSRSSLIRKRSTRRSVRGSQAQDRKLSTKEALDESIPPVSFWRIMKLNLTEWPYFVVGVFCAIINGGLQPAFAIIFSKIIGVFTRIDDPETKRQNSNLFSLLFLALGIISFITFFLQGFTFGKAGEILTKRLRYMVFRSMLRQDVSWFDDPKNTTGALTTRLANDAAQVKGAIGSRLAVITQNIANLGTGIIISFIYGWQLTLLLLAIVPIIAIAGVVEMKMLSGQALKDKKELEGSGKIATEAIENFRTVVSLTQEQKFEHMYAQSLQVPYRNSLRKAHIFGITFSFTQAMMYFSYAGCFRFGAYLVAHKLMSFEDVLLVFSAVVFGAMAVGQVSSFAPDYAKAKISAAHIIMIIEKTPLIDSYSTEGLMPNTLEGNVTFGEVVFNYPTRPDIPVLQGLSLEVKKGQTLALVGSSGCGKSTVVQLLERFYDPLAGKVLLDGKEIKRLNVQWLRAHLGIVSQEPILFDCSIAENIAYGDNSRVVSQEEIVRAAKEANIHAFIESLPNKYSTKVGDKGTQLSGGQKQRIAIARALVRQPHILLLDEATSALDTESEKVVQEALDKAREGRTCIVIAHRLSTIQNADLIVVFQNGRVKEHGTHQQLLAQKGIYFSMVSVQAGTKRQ
Method: For this test, fluorescein and N-methylquinidine were used as the probe substrates in positive control group. ATP-containing test sample or positive control samples were prepared and pre-incubated with MDR1 vesicles at 37° C. After the pre-incubation, the two kinds of samples were mixed and co-incubated at 37° C. The samples were then transferred to a 96-well filter plate, and washed by suction filtration. The vesicles on the filter plate were lysed by using 80% of methanol, and then centrifuged to collect the filtrate. The filtrate was added with pre-cooled methanol containing internal standard. After the centrifugation, the obtained supernatant was taken and the test sample or positive control samples were detected.

NCI-H358 cells = experiment: Cell proliferation activity of NCI-H358 by CellTiter-Glo reagent; assay type: cell-based
Method: NCI-H358 cells in exponential growth phase were digested with trypsin-EDTA, plated in a 96-well plate with 2000-3000 cells per well, and incubated overnight at 37° C. with 5% CO2. […] After the incubation, CellTiter-Glo test reagent with an equal volume was added into each well and the obtained 96-well plate was incubated after shaking. The chemiluminescence values were determined by microplate reader, and the IC50 values of the test compounds inhibiting the proliferation of NCI-H358 cells were fitted and calculated by GraphPad Prism software.
The test method of inhibitory activity was the same as that in Test 3 in “Biological Tests” part.

KRAS G12C = KRAS G12C (Homo sapiens, UniProt P01116, G12C); experiment: Effect on KRAS(G12C) enzyme activity (KRAS G12C/c-Raf binding, Eu/d2 energy transfer); assay type: biochemical
Sequence of KRAS G12C (P01116 1-188 isoform P01116-2 G12C): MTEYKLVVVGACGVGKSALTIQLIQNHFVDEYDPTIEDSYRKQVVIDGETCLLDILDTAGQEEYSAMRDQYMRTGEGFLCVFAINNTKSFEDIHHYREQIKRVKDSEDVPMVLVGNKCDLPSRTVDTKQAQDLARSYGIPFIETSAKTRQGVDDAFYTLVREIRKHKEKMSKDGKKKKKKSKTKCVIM
Method: Compound stock solution was taken, and the test compound was subjected to gradient elution in DMSO. The above diluted compound was added into a quantitative volume of enzyme reaction buffer and subjected to oscillation on a microplate oscillator for 20 min.
4 μL of enzyme was transferred to a 384-well reaction plate. 1 μL of the test compound was added into the 384-well reaction plate. The plate was sealed with sealing film, and the reaction plate with the compound was centrifuged at 1000 rpm for 1 min and incubated for 60 min. 5 μL of a mixture of substrate and antibody was transferred to the 384-well reaction plate. The plate was sealed with sealing film, then centrifuged at 1000 rpm for 1 min and incubated for 120 min at room temperature.
Ratiopositive control: average value of the ratios of 10 positive control wells; Rationegative control: average value of the ratios of 10 negative control wells.

[5] = target: T1, human-derived MDR1 (MDR1 coding P-gp) transporter protein; settings: from N Engl J Med 2020;383:1207-1217 supporting information; cited from earlier work
[6] = system: Chinese hamster lung fibroblasts (CHL cells); settings: from N Engl J Med 2020;383:1207-1217 supporting information; cited from earlier work
[7] = Safety test for repeated administration for 14 days in SD rats; assay type: in vivo; settings: oral gavage once a day for 14 days, 50, 150, 400 mg/kg
Method: (§6) Test samples: Compound 3-2, and Compound 3-6.
(§7) Animal species and number: SD rat; 6 animals per group (half male and half female).
as §4
Animal grouping and administration dose: vehicle blank group, Compound 3-2 group (50 mg/kg, 150 mg/kg, 400 mg/kg), Compound 3-6 group (50 mg/kg, 150 mg/kg, 400 mg/kg).
Administration frequency: once a day for 14 days.
as §5, with “the rats” for “the mice”, “The contents of detailed clinical observation included but were not limited to behavioral activity, skin, coat, eyes, ears, nose, abdomen, external genitalia, anus, extremities, feet, and respiration. The” for “The”, “euthanized at” for “euthanized after”, “the end of administration period,” for “the administration,”

MIA PaCa-2 cells = experiment: Cell proliferation activity of MIA PaCa-2 by CellTiter-Glo reagent; assay type: cell-based; settings: 72 h, CellTiter-Glo
Method: MIA PaCa-2 cells in exponential growth phase were digested with trypsin-EDTA, plated in a 96-well plate with 2000-3000 cells per well, and incubated overnight at 37° C. with 5% CO2. Mother solutions were prepared from the test compounds by using DMSO, subjected to gradient elution with DMEM growth medium, and then added into the 96-well plate and incubated in an incubator for 72 h at 37° C. with 5% CO2. After the incubation, CellTiter-Glo test reagent with an equal volume was added into each well and the obtained 96-well plate was incubated after shaking. The chemiluminescence values were determined by microplate reader, and the IC50 values of the test compounds inhibiting the proliferation of MIA PaCa-2 cells were fitted and calculated by GraphPad Prism software.
The test method of inhibitory activity was the same as that in Test 2 in “Biological Tests” part.

[8] = Acute toxicity test, single oral dose in SD rats; assay type: in vivo; settings: rat, in vivo
Method: as §6, §7, §4
Animal grouping and administration dose: vehicle blank group, Compound 3-2 group (500 mg/kg, 1000 mg/kg, 2000 mg/kg), Compound 3-6 group (500 mg/kg, 1000 mg/kg, 2000 mg/kg).
Administration frequency: once.
Death, morbidity, respiration, secretions, feces, and diet, drinking situation and so on were observed, and the changes in body weight of the rats during the administration period were recorded. The contents of detailed clinical observation included but were not limited to behavioral activity, skin, coat, eyes, ears, nose, abdomen, external genitalia, anus, extremities, feet, and respiration. The animals in each group were euthanized at the end of observation period, and all animals were dissected and subjected to gross observation.

NCI-H358 = experiment: Cell proliferation inhibitory activity on NCI-H358, 3D model test (agarose colony formation); assay type: cell-based
Method: 100 μl of agarose gel with a high concentration was spread in a 96-well plate as the bottom agarose gel layer. Agarose with a low concentration and growth medium containing cells were mixed and then spread on the bottom agar layer, cooled and solidified, then incubated overnight at 37° C. Mother solutions were prepared from the test compounds by using DMSO, and then subjected to gradient elution with RPMI 1640 growth medium. The solutions of test compounds with different concentrations after gradient elution were added to the 96-well plate comprising an upper layer of agar gel-cells. Solvent control well was set up and the plate was incubated in a CO2 incubator. The drug-containing medium was changed during the incubation period and the cell growth situation was observed. After the incubation, the cells were stained with NBT and the number of cell colony formation was counted, and the IC50 values of the compounds inhibiting cell proliferation were derived.

[9] = Homo sapiens, NCI-H358, test 8, method of test 3, read-out: IC50 of proliferation inhibitory activity of the compound on NCI-H358 cell line

[2H]C([2H])=Cc1cccc(F)c1-c1nc2c(cc1Cl)c(N1CCN(C(=O)C=C)C[C@@H]1C)nc(=O)n2-c1c(C)ccnc1C(C)C [Compound 3-12M]
inhibition effect on the growth of subcutaneously transplanted tumors derived from pancreatic cancer MIA paca-2 cells in nude mice (in words) ([1]; 10 mg/kg QD×15 days): significant inhibition effect | tumor inhibition rate compared with Compound 3-20 (in words) ([1]; 10 mg/kg QD×15 days): higher than that of Compound 3-20 | Tumor inhibition rate (%) [1]: +++ (“+++” represents a tumor inhibition rate of >80%) | MTD at 5 days [2]: > 800 mg/kg | water and food intake, activity and body weight during the administration period (in words) [2]: no significant abnormality was showed | inhibitory activity on tumor growth in vivo compared with ARS1620 (in words) [3]: significantly better than that of ARS1620 | substrate for P-gp (in words) [4]: not a substrate for P-gp | anti-cell proliferation activity against KRAS G12C mutant type cells NCI-H358 (in words) (NCI-H358 cells; 72 h, CellTiter-Glo): significant anti-cell proliferation activity | IC50 (NCI-H358 cells; Homo sapiens, NCI-H358, 72 h, 72 h, CellTiter-Glo, test 3, read-out: IC50 value of cell proliferation inhibitory activity of NCI-H358): < 50 nM | cell proliferation inhibitory activity on NCI-H358 compared with the corresponding compound with axial chiral S configuration (in words) (NCI-H358 cells; NCI-H358): significantly better | cell proliferation inhibitory activity of R-configuration compound relative to the corresponding axial chiral S-configuration compound (NCI-H358 cells; NCI-H358, 3-12M versus 3-12P): more than 5 times | cell proliferation inhibitory activity of NCI-H358 compared with AMG510 (in words) (NCI-H358 cells; test 8): better than AMG510 | IC50 (NCI-H358 cells; test 8, method of test 3, read-out: IC50 of proliferation inhibitory activity of the compound on NCI-H358 cell line): 8 nM | inhibitory activity on KRAS G12C enzyme compared with AMG510 (in words) (KRAS G12C): remarkable better

C=CC(=O)N1CCN(c2nc(=O)n(-c3c(C)ccnc3C(C)C)c3nc(-c4c(O)cccc4F)c(F)cc23)[C@@H](C)C1 [AMG510]
substrate for P-gp (in words) [5]: is a substrate | chromosome aberration effect test result (in words) [6]: positive result | IC50 (NCI-H358 cells; [9]): 41 nM

C=CC(=O)N1CCN(c2nc(=O)n(-c3c(C)ccnc3C(C)C)c3nc(-c4c(F)cccc4C=C)c(Cl)cc23)[C@@H](C)C1 [Compound 3-6]
water and food intake, activity and body weight during the administration period (in words) [7]: no significant abnormality was showed | inhibition effect on the growth of subcutaneously transplanted tumors derived from pancreatic cancer MIA paca-2 cells in nude mice (in words) ([1]; 10 mg/kg QD×15 days): significant inhibition effect | Tumor inhibition rate (%) [1]: +++ (“+++” represents a tumor inhibition rate of >80%) | anti-cell proliferation activity against KRAS G12C mutant type cells MIA PaCa-2 (in words) (MIA PaCa-2 cells): significant anti-cell proliferation activity | IC50 (MIA PaCa-2 cells; Homo sapiens, MIA PaCa-2, read-out: IC50 value of cell proliferation inhibitory activity of the compound on MIA PaCa-2): < 50 nM | MTD at 5 days [2]: > 800 mg/kg | water and food intake, activity and body weight during the administration period (in words) [2]: no significant abnormality was showed | MTD ([8]; both sexes, SD rats, single oral gavage, 500, 1000, 2000 mg/kg, read-out: maximum tolerated dose (MTD)): ≥ 2000 mg/kg | death or morbidity after single dose (in words) [8]: No animals in each group were dead or close to death | IC50 (NCI-H358 cells; [9]): 11 nM | anti-cell proliferation activity against KRAS G12C mutant type cells NCI-H358 (in words) (NCI-H358; 3D model test): significant anti-cell proliferation activity | IC50 (NCI-H358; Homo sapiens, NCI-H358, 3D agarose colony formation, NBT staining): < 50 nM
